Results reported in patent US11478459B2, “Pharmaceutical preparation” (Merck Patent GmbH, priority 2017, dated 2022).
In brackets after ≈: the same amount, converted by molar mass. Where two headings read alike, the source gives them in different places.

Test: Solubility of the Compound in water, biorelevant media (FaSSIF, FeSSIF) and oils
Type: physicochemical

In the case of `COc1cc2ncc3c(c2cc1-c1cnn(C)c1)n(-c1ccc(C#N)cc1F)c(=O)n3C` [3-Fluoro-4-[7-methoxy-3-methyl-8-(1-methyl-1H-pyrazol-4-yl)-2-oxo-2,3-dihydro-imidazo[4,5-c]quinolin-1-yl]-benzonitrile], the “DCS classification (Butler and Dressman, 2010)” value is reported as “DCS IIb”, the solubility (FaSSIF, read-out: solubility in Fasted Simulated Intestinal Fluid (FaSSIF)) is reported as 0.25 µg/mL (≈ 0.584 µM) and the solubility (FeSSIF, read-out: solubility in FedState Simulated Intestinal Fluid (FeSSIF)) is reported as 1 µg/mL (≈ 2.33 µM). For the same compound, the dose/solubility ratio (estimated efficacious human dose of >100 mg) was “at least 100,000”, the “solubility in the tested oils” value (in words) was “low solubility” and the “solubility in water and biorelevant media” value (in words) was “very low solubility”.
In the case of `COc1cc2ncc3c(c2cc1-c1cnn(C)c1)n(-c1ccc(C#N)cc1F)c(=O)n3C` [Compound, 3-Fluoro-4-[7-methoxy-3-methyl-8-(1-methyl-1H-pyrazol-4-yl)-2-oxo-2,3-dihydro-imidazo[4,5-c]quinolin-1-yl]-benzonitrile], the solubility (FaSSIF, as restated in Example 5, read-out: solubility of the Compound in FaSSIF) is reported as roughly 0.25 µg/mL (≈ 0.584 µM).
